Source: patent US20240383882A1 (Ecstasy LLC, priority 2020, published 2024)

Test system: male C57BL/6 mice
Experiment: 55° C. warm-water tail-flick test (antinociception)
Type: in vivo
Settings: Mus musculus; half maximal effective dose in mice; using one of: warm water tail-flick test, spared nerve injury, chronic constriction injury, or Complete Freund's adjuvant induced inflammatory pain (not stated which per compound); read-out: Biological Activity (ED50)
How it was run: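 Subcutaneous dosing, then tail immersion in 55° C water at 30–120 min; latency normalized as 100×(test−control)/(20−control), using a 20 s cutoff, after excluding mice not responding within 2 s at baseline. Values expressed as ED50 (mg/kg).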

Structure (SMILES)	ED50
CC(C)(c1ccccn1)N1CC[C@@](CCc2ccc(C#N)cc2)(COCc2ccccc2)C1 [Compound 131, (R)-4-(2-(3-((benzyloxy)methyl)-1-(2-(pyridin-2-yl)propan-2-yl)pyrrolidin-3-yl)ethyl) benzonitrile]	> 50 mg/kg
CCOC[C@]1(CCc2ccc(C#N)cc2)CCN(C(C)(C)c2ccccn2)C1 [Compound 132, (R)-4-(2-(3-(ethoxymethyl)-1-(2-(pyridin-2-yl)propan-2-yl)pyrrolidin-3-yl)ethyl) benzonitrile]	> 50 mg/kg
CC(C)(c1ccccn1)N1CC[C@@](CCc2cccc(C#N)c2)([C@H](O)C(F)(F)F)C1 [Compound 133, 3-(2-((R)-1-(2-(pyridin-2-yl)propan-2-yl)-3-((S)-2,2,2-trifluoro-1-hydroxyethyl)pyrrolidin-3-yl)ethyl) benzonitrile]	> 50 mg/kg
CCOC(C(F)(F)F)(C(F)(F)F)[C@]1(CCc2ccc(C#N)cc2)CCN(C(C)(C)c2ccccn2)C1 [Compound 137, (R)-4-(2-(3-(2-ethoxy-1,1,1,3,3,3-hexafluoropropan-2-yl)-1-(2-(pyridin-2-yl)propan-2-yl)pyrrolidin-3-yl)ethyl) benzonitrile]	> 50 mg/kg
CC(C)(c1ccccn1)N1CC[C@@](CCc2ccc(C#N)cc2)(C(=O)O)C1 [Compound 138, (R)-3-(4-cyanophenethyl)-1-(2-(pyridin-2-yl)propan-2-yl)pyrrolidine-3-carboxylic acid]	> 50 mg/kg
CCOC(=O)[C@]1(CCc2ccc(C#N)cc2)CCN(C(C)(C)c2ccccn2)C1 [Compound 139, ethyl (R)-3-(4-cyanophenethyl)-1-(2-(pyridin-2-yl)propan-2-yl)pyrrolidine-3-carboxylate]	> 50 mg/kg
CC(C)(c1ccc(C(F)(F)F)nc1)N1CC[C@@](CCc2ccc(C#N)cc2)(C(C)(C)O)C1 [Compound 140, (R)-4-(2-(3-(2-hydroxypropan-2-yl)-1-(2-(6-(trifluoromethyl)pyridin-3-yl)propan-2-yl)pyrrolidin-3-yl)ethyl) benzonitrile]	> 50 mg/kg
CC(C)(c1ccccn1)N1CC[C@@](CCc2ccc(C#N)s2)(COCc2ccccc2)C1 [Compound 141, (R)-5-(2-(3-((benzyloxy)methyl)-1-(2-(pyridin-2-yl)propan-2-yl)pyrrolidin-3-yl)ethyl)thiophene-2-carbonitrile]	≤ 30 mg/kg
COc1cccc(C(C)(C)N2CC[C@](CO)(CCc3ccc(C#N)cc3)C2)c1 [Compound 142, (R)-4-(2-(3-(hydroxymethyl)-1-(2-(3-methoxyphenyl)propan-2-yl)pyrrolidin-3-yl)ethyl) benzonitrile]	> 50 mg/kg
COc1cccc(C(C)(C)N2CC[C@@](CCc3ccc(C#N)cc3)(C(=O)O)C2)c1 [Compound 143, (R)-3-(4-cyanophenethyl)-1-(2-(3-methoxyphenyl)propan-2-yl)pyrrolidine-3-carboxylic acid]	> 50 mg/kg
Cc1cccc(C(C)(C)N2CC[C@](CO)(CCc3ccc(C#N)cc3)C2)n1 [Compound 144, (R)-4-(2-(3-(hydroxymethyl)-1-(2-(6-methylpyridin-2-yl)propan-2-yl)pyrrolidin-3-yl)ethyl) benzonitrile]	> 50 mg/kg
Cc1cccc(C(C)(C)N2CC[C@@](CCc3ccc(C#N)cc3)(C(=O)O)C2)n1 [Compound 145, (R)-3-(4-cyanophenethyl)-1-(2-(6-methylpyridin-2-yl)propan-2-yl)pyrrolidine-3-carboxylic acid]	> 50 mg/kg
CC(C)(c1ccccn1)N1CC[C@](CO)(CCc2ccc(F)c(F)c2)C1 [Compound 146, (R)-(3-(3,4-difluorophenethyl)-1-(2-(pyridin-2-yl)propan-2-yl)pyrrolidin-3-yl)methanol]	> 50 mg/kg
CC(C)(c1ccccn1)N1CC[C@](CO)(CCc2ccc(C#N)s2)C1 [Compound 147, (R)-5-(2-(3-(hydroxymethyl)-1-(2-(pyridin-2-yl)propan-2-yl)pyrrolidin-3-yl)ethyl)thiophene-2-carbonitrile]	> 50 mg/kg
COc1cccc(C(C)(C)N2CC[C@@](CCc3ccc(C#N)cc3)(C(N)=O)C2)c1 [Compound 148, (R)-3-(4-cyanophenethyl)-1-(2-(3-methoxyphenyl)propan-2-yl)pyrrolidine-3-carboxamide]	> 50 mg/kg
Cc1cccc(C(C)(C)N2CC[C@@](CCc3ccc(C#N)cc3)(C(N)=O)C2)n1 [Compound 149, (R)-3-(4-cyanophenethyl)-1-(2-(6-methylpyridin-2-yl)propan-2-yl)pyrrolidine-3-carboxamide]	> 50 mg/kg
CC(C)(c1ccccn1)N1CC[C@@](CCc2ccc(C#N)s2)(C(=O)C(F)(F)F)C1 [Compound 154, (R)-5-(2-(1-(2-(pyridin-2-yl)propan-2-yl)-3-(2,2,2-trifluoroacetyl)pyrrolidin-3-yl)ethyl)thiophene-2-carbonitrile]	> 50 mg/kg
CNC(=O)[C@]1(CCc2ccc(C#N)cc2)CCN(C(C)(C)c2ccccn2)C1 [Compound 155, (R)-3-(4-cyanophenethyl)-N-methyl-1-(2-(pyridin-2-yl)propan-2-yl)pyrrolidine-3-carboxamide]	≤ 30 mg/kg

Structure (SMILES)	ED50
COc1cccc(C(C)(C)N2CC[C@](CO)(CCc3ccc(C#N)cc3)C2)n1 [Compound 157, (R)-4-(2-(3-(hydroxymethyl)-1-(2-(6-methoxypyridin-2-yl)propan-2-yl)pyrrolidin-3-yl)ethyl) benzonitrile]	≤ 30 mg/kg
COc1cccc(C(C)(C)N2CC[C@@](CCc3ccc(C#N)cc3)(C(=O)O)C2)n1 [Compound 158, (R)-3-(4-cyanophenethyl)-1-(2-(6-methoxypyridin-2-yl)propan-2-yl)pyrrolidine-3-carboxylic acid]	> 50 mg/kg
COc1cccc(C(C)(C)N2CC[C@@](CCc3ccc(C#N)cc3)(C(N)=O)C2)n1 [Compound 159, (R)-3-(4-cyanophenethyl)-1-(2-(6-methoxypyridin-2-yl)propan-2-yl)pyrrolidine-3-carboxamide]	≤ 30 mg/kg
CC(C)(c1ccccn1)N1CC[C@@](CCc2ccc(C#N)s2)(C(O)(C(F)(F)F)C(F)(F)F)C1 [Compound 160, (R)-5-(2-(3-(1,1,1,3,3,3-hexafluoro-2-hydroxypropan-2-yl)-1-(2-(pyridin-2-yl)propan-2-yl)pyrrolidin-3-yl)ethyl)thiophene-2-carbonitrile]	> 50 mg/kg
CCOC(C(F)(F)F)(C(F)(F)F)[C@]1(CCc2ccc(C#N)s2)CCN(C(C)(C)c2ccccn2)C1 [Compound 161, (R)-5-(2-(3-(2-ethoxy-1,1,1,3,3,3-hexafluoropropan-2-yl)-1-(2-(pyridin-2-yl)propan-2-yl)pyrrolidin-3-yl)ethyl)thiophene-2-carbonitrile]	> 50 mg/kg
CC(C)(c1ccccn1)N1CC[C@@](CCc2ccc(C#N)cc2)(CS(C)(=O)=O)C1 [Compound 162, (R)-4-(2-(3-((methylsulfonyl)methyl)-1-(2-(pyridin-2-yl)propan-2-yl)pyrrolidin-3-yl)ethyl) benzonitrile]	> 50 mg/kg
CC(C)(c1ccccn1)N1CC[C@@](CCc2ccc3nonc3c2)(COCc2ccccc2)C1 [Compound 163, (R)-5-(2-(3-((benzyloxy)methyl)-1-(2-(pyridin-2-yl)propan-2-yl)pyrrolidin-3-yl)ethyl)benzo[c] [1,2,5]oxadiazole]	> 50 mg/kg
CC(C)(c1ccccn1)N1CC[C@@](CCc2ccc3ccoc3c2)(COCc2ccccc2)C1 [Compound 164, (R)-2-(2-(3-(2-(benzofuran-6-yl)ethyl)-3-((benzyloxy)methyl)pyrrolidin-1-yl)propan-2-yl)pyridine]	> 50 mg/kg
Cc1ccc(C(C)(C)N2CC[C@@](CCc3ccc(C#N)cc3)(C(O)(C(F)(F)F)C(F)(F)F)C2)cn1 [Compound 165, (R)-4-(2-(3-(1,1,1,3,3,3-hexafluoro-2-hydroxypropan-2-yl)-1-(2-(6-methylpyridin-3-yl)propan-2-yl)pyrrolidin-3-yl)ethyl) benzonitrile]	≤ 30 mg/kg
Cc1ccc(C(C)(C)N2CC[C@@](CCc3ccc(C#N)cc3)(C(=O)C(F)(F)F)C2)cn1 [Compound 166, (R)-4-(2-(1-(2-(6-methylpyridin-3-yl)propan-2-yl)-3-(2,2,2-trifluoroacetyl)pyrrolidin-3-yl)ethyl) benzonitrile]	≤ 30 mg/kg
CC(C)(c1ccccn1)N1CC[C@](CO)(CCc2ccc3nonc3c2)C1 [Compound 167, (R)-(3-(2-(benzo[c][1,2,5]oxadiazol-5-yl)ethyl)-1-(2-(pyridin-2-yl)propan-2-yl)pyrrolidin-3-yl)methanol]	≤ 30 mg/kg
CC(C)(c1ccccn1)N1CC[C@](CO)(CCc2ccc3ccoc3c2)C1 [Compound 168, (R)-(3-(2-(benzofuran-6-yl)ethyl)-1-(2-(pyridin-2-yl)propan-2-yl)pyrrolidin-3-yl)methanol]	≤ 30 mg/kg
CC(C)(c1ccccn1)N1CC[C@@](CCc2ccc3nonc3c2)(CS(C)(=O)=O)C1 [Compound 169, (R)-5-(2-(3-((methylsulfonyl)methyl)-1-(2-(pyridin-2-yl)propan-2-yl)pyrrolidin-3-yl)ethyl)benzo[c] [1,2,5]oxadiazole]	> 50 mg/kg
CC(C)(c1ccccn1)N1CC[C@@](CCc2ccc3ccoc3c2)(C(N)=O)C1 [Compound 174, (R)-3-(2-(benzofuran-6-yl)ethyl)-1-(2-(pyridin-2-yl)propan-2-yl)pyrrolidine-3-carboxamide]	≤ 30 mg/kg
CC(C)(c1ccccn1)N1CC[C@](C#N)(CCc2ccc(F)c(F)c2)C1 [Compound 175, (R)-3-(3,4-difluorophenethyl)-1-(2-(pyridin-2-yl)propan-2-yl)pyrrolidine-3-carbonitrile]	> 50 mg/kg
CC(C)(c1ccccn1)N1CC[C@](C#N)(CCc2ccc3nonc3c2)C1 [Compound 178, (R)-3-(2-(benzo[c][1,2,5]oxadiazol-5-yl)ethyl)-1-(2-(pyridin-2-yl)propan-2-yl)pyrrolidine-3-carbonitrile]	> 50 mg/kg
CC(C)(c1ccccn1)N1CC[C@](C#N)(CCc2ccc(C#N)cc2)C1 [Compound 179, (R)-3-(4-cyanophenethyl)-1-(2-(pyridin-2-yl)propan-2-yl)pyrrolidine-3-carbonitrile]	> 50 mg/kg
